The source of these data is the supplement of paper PMC4862054.

In test [1] the test system is SK-BR-3. Kind of test: drug sensitivity score (DSS), CellTiter-Glo (DSS (AUC-based score)); higher = stronger drug effect (viability inhibition or cytotoxicity); extreme values may be limits of the assay. The following applies: incubation time: 72 h. Summed up: (§1)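 Breast cancer cell lines were seeded in 20 µl suspension into 384-well plates already holding compound and incubated for 72 h. Each compound was tested at 5 concentrations in 10-fold steps across its own 10,000-fold range. Plates were normalised to 0.1 % DMSO and a positive kill control after CellTox Green and then CellTiter-Glo readings. The area under the fitted dose-response curve served as the basis for the drug sensitivity score.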
In general terms: Cellular ATP, detected with luciferase, serves as a proxy for viable cell number.

Test [2] has as its system MDA-MB-231. Described as above. The following applies: incubation time: 72 h. Summed up:
as §1

Test [3] relates to BT-549. Described as above. The following applies: incubation time: 72 h. In a few lines: as §1
In test [4] the test system is HCC1937. The description is as above. As to conditions: incubation time: 72 h. In a few lines:
as §1

The subject of test [5] is Hs578T. Kind of test: normalised viability (% of control), CellTiter-Blue; higher = more viable cells (about 100 = DMSO control). As to conditions: 100 nM; incubation time: 72 h. Here is the method: (§2)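 DSRT, CellTiter-Blue viability, 72 h incubation. Signal is normalised to DMSO and benzethonium chloride controls. Value is the normalised response at dose 3.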
The subject of test [6] is CAL-120. Described as above. As to conditions: 100 nM; incubation time: 72 h. The protocol:
as §2

The subject of test [7] is MDA-MB-468. The description is as above. As to conditions: 100 nM; incubation time: 72 h. The protocol:
as §2

Test [8] has as its system CAL-85-1. The description is as above. As to conditions: 10 nM; incubation time: 72 h. Here is the method: as §2
Test [9] has as its system SK-BR-3. Described as above. As to conditions: 100 nM; incubation time: 72 h. The protocol: as §2
Test [10] has as its system BT-474. The description is as above. As to conditions: 100 nM; incubation time: 72 h. Here is the method: as §2
For test [11], the system named is MDA-MB-231. Described as above. The following applies: 100 nM; incubation time: 72 h. Here is the method:
as §2

The subject of test [12] is HDQ-P1. The description is as above. The following applies: 10 nM; incubation time: 72 h. Here is the method:
as §2

Test [13] deals with BT-549. Described as above. The following applies: 100 nM; incubation time: 72 h. The protocol: as §2
The subject of test [14] is CAL-51. The test is described as above. As to conditions: 10 nM; incubation time: 72 h. Here is the method:
as §2

The test system of test [15] is MDA-MB-453. The test is described as above. The following applies: 10 nM; incubation time: 72 h. The protocol:
as §2

Test [16] relates to HCC1143. The description is as above. The following applies: 100 nM; incubation time: 72 h. Here is the method:
as §2

Test [17] deals with MFM-223. The description is as above. The following applies: 100 nM; incubation time: 72 h. The protocol: as §2
Test [18] relates to CAL-148. The description is as above. The following applies: 10 nM; incubation time: 72 h. The protocol:
as §2

For test [19], the system named is HCC1937. The description is as above. The following applies: 100 nM; incubation time: 72 h. The protocol: as §2
Test [20] deals with MDA-MB-436. The description is as above. The following applies: 100 nM; incubation time: 72 h. The protocol:
as §2

Test [21] relates to DU-4475. The test is described as above. As to conditions: 10 nM; incubation time: 72 h. The protocol:
as §2

Test [22] has as its system HCC1599. Described as above. The following applies: 100 nM; incubation time: 72 h. Here is the method:
as §2

For test [23], the system named is CAL-120. Kind of test: normalised response (% of control), CellTox Green; higher = less cell death (100 = DMSO, 0 = benzethonium chloride kill control). The following applies: incubation time: 72 h. In a few lines:
(§3)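 Breast cancer cell lines, seeded at 20 µl suspension per well, were incubated for 72 h in 384-well plates containing compound at 5 concentrations. These concentrations rose in 10-fold steps over a 10,000-fold range set for each compound. CellTox Green fluorescence (485/520 nm) was read, then CellTiter-Glo luminescence after 10 min at room temperature, and each plate was normalised to 0.1 % DMSO (100) and a positive kill control (0). Values are normalised signals, each at one concentration.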

Test [24] relates to MDA-MB-468. Described as above. The following applies: incubation time: 72 h. Summed up:
as §3

For test [25], the system named is BT-474. The description is as above. The following applies: incubation time: 72 h. Summed up: as §3
Test [26] concerns MDA-MB-231. The test is described as above. The following applies: incubation time: 72 h. In a few lines: as §3
Test [27] concerns HDQ-P1. The test is described as above. The following applies: incubation time: 72 h. Summed up: as §3
Test [28] concerns BT-549. Described as above. The following applies: incubation time: 72 h. Summed up:
as §3

Test [29] has as its system HCC1937. The test is described as above. The following applies: incubation time: 72 h. In a few lines: as §3

In the case of `FC(F)c1nc2ccccc2n1-c1nc(N2CCOCC2)nc(N2CCOCC2)n1` [ZSTK474], the drug sensitivity score was found to be 15.3 in [1], 7.99 in test [2], 13.1 in test [3] and 6.46 in test [4].
Turning to `c1ccc(C2CN3CCSC3=N2)cc1` (stereo not given) [Tetramisole], the normalised viability in test [5] worked out at 97.5%; in test [6], 120%; in test [7] it was 98.8%; in test [8] it was 103%; in [9] it was 104%; in test [10] it was 109%. The normalised viability in test [11] came to 101%; in test [12], 122%; in [13], 83%; in test [14], 95.2%; in test [15], 98.1%; in test [16] it was 116%. For the same compound, the normalised viability in [17] came to 92.3%; in test [18] it was 114%; in test [19] it was 108%; in [20], 108%; in test [21], 87.6%; in [22], 107%.
In the case of `O=P(O)(NCCCl)NCCCl` [Ifosfamide mustard], the normalised viability was 72.2% in [5]; 92.3% in test [6]; 100% in [7]; 101% in test [8]; 86.2% in [9]; 112% in test [10]. The normalised viability in test [11] came to 95.6%; in test [12] it was 122%; in test [13] it was 106%; in test [14], 107%; in test [15] it was 106%; in test [16], 116%. Also, the normalised viability in [17] is 95.2%; in [18] it was 104%; in [19], 100%; in test [20], 98.3%; in test [21], 99.5%; in test [22], 117%.
Turning to `COc1cc(Nc2ncc(F)c(Nc3ccc4c(n3)NC(=O)C(C)(C)O4)n2)cc(OC)c1OC` [Tamatinib], the drug sensitivity score in test [1] came out at 0; in test [2], 0; in test [3], 4.09; in test [4] it was 0.
Turning to `O=c1[nH]cc(F)c(=O)[nH]1` [Fluorouracil] (1000 nM), the normalised response in test [23] was determined as 105%; in [24], 96.7%; in [25] it was 101%; in [26] it was 106%; in test [27] it was 107%; in test [28], 109%. In addition, the normalised response in test [29] was determined as 94.5%.
With `CC(C)C[C@H](NC(=O)[C@H](Cc1ccccc1)NC(=O)c1cnccn1)B(O)O` [Bortezomib] (100 nM), the normalised response is 35.5% in test [23]; -55.4% in [24]; 67.6% in [25]; -41.1% in test [26]; 9.79% in [27]; 55.3% in test [28]. For the same compound, the normalised response in [29] is -5.94%.
Regarding `COc1c(C)cnc(Cn2cnc3c(Cl)nc(N)nc32)c1C` [BIIB021] (1000 nM), the normalised response turned out to be 95.5% in [23]; 135% in test [24]; 77.3% in test [25]; 71.8% in [26]; 90.4% in [27]; 139% in test [28]. Besides, the normalised response in test [29] was found to be 108%.
